Laboratory results: ChEMBL document CHEMBL1123972, “Drug-induced modifications of the immune response. 12. 4,5-Dihydro-4-oxo-2-(substituted amino)-3-furancarboxylic acids and derivatives as novel antiallergic agents” (1988)
Structures can show the parent of a compound that is named as a salt.

What was measured:
Format in all cases: functional
Rattus norvegicus [1] = test: Inhibition of histamine -induced dermal vascular permeability in rats at a intraperitoneal dose of 100 mg/kg 1 hr prior to challenge; settings: ip
Rattus norvegicus [2] = test: Inhibition of serotonin -induced dermal vascular permeability in rats at a intraperitoneal dose of 100 mg/kg 1 hr prior to challenge; settings: ip
Rattus norvegicus [3] = test: Inhibition of bradykinin-induced dermal vascular permeability in rats at a intraperitoneal dose of 100 mg/kg 1 hr prior to challenge; settings: ip
Rattus norvegicus [4] = test: Antiallergic activity of edema in the active anaphylaxis assay at a intraperitoneal dose of 100 mg/kg in rats; design: unit not given here
Rattus norvegicus [5] = test: Antiallergic activity evaluated as percent inhibition at intraperitoneal dose of 100 mg/kg in rats; settings: for inhibition in vivo at 100 mg/kg: Rattus norvegicus, ip
Rattus norvegicus [6] = test: Inhibition of histamine -induced dermal vascular permeability in rats at a peroral dose of 100 mg/kg 1 hr prior to challenge; settings: route oral
Rattus norvegicus [7] = test: Inhibition of serotonin -induced dermal vascular permeability in rats at a peroral dose of 100 mg/kg 1 hr prior to challenge; settings: route oral
Rattus norvegicus [8] = test: Inhibition of bradykinin-induced dermal vascular permeability in rats at a peroral dose of 100 mg/kg 1 hr prior to challenge; settings: route oral
Rattus norvegicus [9] = test: Antiallergic activity of edema in the active anaphylaxis assay at a peroral dose of 100 mg/kg in rats; settings: route oral
Rattus norvegicus [10] = test: Antiallergic activity evaluated as percent inhibition at peroral dose of 100 mg/kg in rats; settings: route oral

## CCOC(=O)C1=C(NC)OCC1=O
Rattus norvegicus [1]
  inhibition in vivo at 100 mg/kg: 50%
Rattus norvegicus [2]
  inhibition in vivo at 100 mg/kg: 38%
Rattus norvegicus [3]
  inhibition in vivo at 100 mg/kg: 25%

## O=C(O)C1=C(Nc2ccc(Br)cc2)OCC1=O
Rattus norvegicus [4]
  Activity: 3.24
Rattus norvegicus [5]
  inhibition in vivo at 100 mg/kg: 27%
Rattus norvegicus [6]
  inhibition in vivo at 100 mg/kg: 45%
Rattus norvegicus [7]
  inhibition in vivo at 100 mg/kg: 39%
Rattus norvegicus [8]
  inhibition in vivo at 100 mg/kg: 68%

## O=C([O-])C1=C(NC2CC2c2ccccc2)OCC1=O.[Na+] (stereo unspecified)
Rattus norvegicus [4]
  Activity: 3.72
Rattus norvegicus [5]
  inhibition in vivo at 100 mg/kg: 22%

## O=C(O)C1=C(Nc2ccccc2)OCC1=O
Rattus norvegicus [4]
  Activity: 0.47
Rattus norvegicus [5]
  Inhibition: 81%

## CCOC(=O)C1=C(Nc2ccccc2)OC(C)(C)C1=O
Rattus norvegicus [4]
  Activity: 7.71
Rattus norvegicus [5]
  inhibition in vivo at 100 mg/kg: 16%

## CC1OC(Nc2ccccc2)=C(C(=O)O)C1=O (stereo unspecified)
Rattus norvegicus [4]
  Activity: 2
Rattus norvegicus [5]
  inhibition in vivo at 100 mg/kg: 60%

## CCOC(=O)C1=C(Nc2cccc(C(F)(F)F)c2)OCC1=O
Rattus norvegicus [6]
  inhibition in vivo at 100 mg/kg: 4.1%
Rattus norvegicus [7]
  inhibition in vivo at 100 mg/kg: 9.7%
Rattus norvegicus [8]
  inhibition in vivo at 100 mg/kg: 40%

## O=C([O-])C1=C(Nc2ccccc2)OCC1=O.[Na+]
Rattus norvegicus [4]
  Activity: 2.75
Rattus norvegicus [5]
  Inhibition: 17%

## O=C1COC(Nc2ccc(Cl)cc2)=C1C(=O)Nc1ccc(Cl)cc1
Rattus norvegicus [1]
  inhibition in vivo at 100 mg/kg: 15%
Rattus norvegicus [2]
  inhibition in vivo at 100 mg/kg: 14%
Rattus norvegicus [3]
  inhibition in vivo at 100 mg/kg: 44%

## CCOC(=O)C1=C(NC2CC2c2ccccc2)OCC1=O (stereo unspecified)
Rattus norvegicus [6]
  inhibition in vivo at 100 mg/kg: 35%
Rattus norvegicus [7]
  inhibition in vivo at 100 mg/kg: 57%
Rattus norvegicus [8]
  inhibition in vivo at 100 mg/kg: 59%

## CN1CCC(=C2c3ccccc3C=Cc3ccccc32)CC1 [CYPROHEPTADINE HYDROCHLORIDE]
Rattus norvegicus [1]
  inhibition in vivo at 100 mg/kg: 93%
Rattus norvegicus [2]
  inhibition in vivo at 100 mg/kg: 93%
Rattus norvegicus [3]
  inhibition in vivo at 100 mg/kg: 23%

## COc1ccccc1NC1=C(C(=O)O)C(=O)CO1
Rattus norvegicus [4]
  Activity: 3.45
Rattus norvegicus [5]
  inhibition in vivo at 100 mg/kg: 45%
Rattus norvegicus [6]
  inhibition in vivo at 100 mg/kg: 27%
Rattus norvegicus [7]
  inhibition in vivo at 100 mg/kg: 30%
Rattus norvegicus [8]
  inhibition in vivo at 100 mg/kg: 38%

## CCOC(=O)C1=C(Nc2ccccc2)OC(C)C1=O (stereo unspecified)
Rattus norvegicus [4]
  Activity: 1.44
Rattus norvegicus [5]
  inhibition in vivo at 100 mg/kg: 61%
Rattus norvegicus [1]
  inhibition in vivo at 100 mg/kg: 40%
Rattus norvegicus [2]
  inhibition in vivo at 100 mg/kg: 37%
Rattus norvegicus [3]
  inhibition in vivo at 100 mg/kg: 46%

## O=C(O)C1=C(NC2CC2c2ccc(Cl)cc2)OCC1=O (stereo unspecified)
Rattus norvegicus [4]
  Activity: 4.1
Rattus norvegicus [5]
  inhibition in vivo at 100 mg/kg: 6%
Rattus norvegicus [1]
  inhibition in vivo at 100 mg/kg: 56%
Rattus norvegicus [2]
  inhibition in vivo at 100 mg/kg: 54%
Rattus norvegicus [3]
  inhibition in vivo at 100 mg/kg: 71%

## CCOC(=O)C1=C(NC2CC2c2ccc(Cl)cc2)OCC1=O (stereo unspecified)
Rattus norvegicus [1]
  inhibition in vivo at 100 mg/kg: 60%
Rattus norvegicus [2]
  inhibition in vivo at 100 mg/kg: 51%
Rattus norvegicus [3]
  inhibition in vivo at 100 mg/kg: 76%

## Cn1c(=O)c2nc[nH]c2n(C)c1=O.O [THEOPHYLLINE]
Rattus norvegicus [9]
  Activity: 3.75
Rattus norvegicus [10]
  inhibition in vivo at 100 mg/kg: 66%

## O=C1COC(Nc2ccccc2)=C1C(=O)Nc1ccccc1
Rattus norvegicus [4]
  Activity: 2.45
Rattus norvegicus [5]
  inhibition in vivo at 100 mg/kg: 46%

## O=C(O)C1=C(Nc2cccc([N+](=O)[O-])c2)OCC1=O
Rattus norvegicus [4]
  Activity: 7.29
Rattus norvegicus [5]
  inhibition in vivo at 100 mg/kg: 39%
Rattus norvegicus [1]
  inhibition in vivo at 100 mg/kg: 16%
Rattus norvegicus [2]
  inhibition in vivo at 100 mg/kg: 18%
Rattus norvegicus [3]
  inhibition in vivo at 100 mg/kg: 48%

## O=C(O)C1=C(Nc2cccc3ccccc23)OCC1=O
Rattus norvegicus [4]
  Activity: 1.2
Rattus norvegicus [5]
  inhibition in vivo at 100 mg/kg: 64%

## O=C(O)C1=C(Nc2ccc(C(=O)O)cc2)OCC1=O
Rattus norvegicus [4]
  Activity: 2
Rattus norvegicus [5]
  inhibition in vivo at 100 mg/kg: 52%
Rattus norvegicus [1]
  inhibition in vivo at 100 mg/kg: 64%
Rattus norvegicus [2]
  inhibition in vivo at 100 mg/kg: 63%
Rattus norvegicus [3]
  inhibition in vivo at 100 mg/kg: 64%

## Cc1ccccc1NC(=O)C1=C(Nc2ccccc2C)OCC1=O
Rattus norvegicus [1]
  inhibition in vivo at 100 mg/kg: 0%
Rattus norvegicus [2]
  inhibition in vivo at 100 mg/kg: 9%
Rattus norvegicus [3]
  inhibition in vivo at 100 mg/kg: 7%

## COc1ccccc1NC(=O)C1=C(Nc2ccccc2OC)OCC1=O
Rattus norvegicus [1]
  inhibition in vivo at 100 mg/kg: 1%
Rattus norvegicus [2]
  inhibition in vivo at 100 mg/kg: 18%
Rattus norvegicus [3]
  inhibition in vivo at 100 mg/kg: 39%

## CC1(C)OC(Nc2ccccc2)=C(C(=O)O)C1=O
Rattus norvegicus [4]
  Activity: 1.95
Rattus norvegicus [5]
  inhibition in vivo at 100 mg/kg: 44%

## CCOC(=O)C1=C(Nc2ccc(Cl)cc2)OCC1=O
Rattus norvegicus [6]
  inhibition in vivo at 100 mg/kg: 3.3%
Rattus norvegicus [7]
  inhibition in vivo at 100 mg/kg: 6.6%
Rattus norvegicus [8]
  inhibition in vivo at 100 mg/kg: 9.5%

## CCOC(=O)C1=C(Nc2ccc(C(=O)OCC)cc2)OCC1=O
Rattus norvegicus [6]
  inhibition in vivo at 100 mg/kg: 21%
Rattus norvegicus [7]
  inhibition in vivo at 100 mg/kg: 18%
Rattus norvegicus [8]
  inhibition in vivo at 100 mg/kg: 21%

## Cc1ccc(C2CC2NC2=C(C(=O)O)C(=O)CO2)cc1 (stereo unspecified)
Rattus norvegicus [4]
  Activity: 1.58
Rattus norvegicus [5]
  inhibition in vivo at 100 mg/kg: 45%
Rattus norvegicus [1]
  inhibition in vivo at 100 mg/kg: 100%
Rattus norvegicus [2]
  inhibition in vivo at 100 mg/kg: 100%
Rattus norvegicus [3]
  inhibition in vivo at 100 mg/kg: 100%

## O=C(O)C1=C(Nc2cccc(C(F)(F)F)c2)OCC1=O
Rattus norvegicus [4]
  Activity: 3.35
Rattus norvegicus [5]
  inhibition in vivo at 100 mg/kg: 45%
Rattus norvegicus [6]
  inhibition in vivo at 100 mg/kg: 26%
Rattus norvegicus [7]
  inhibition in vivo at 100 mg/kg: 40%
Rattus norvegicus [8]
  inhibition in vivo at 100 mg/kg: 54%

## COc1ccc(NC(=O)C2=C(Nc3ccc(OC)cc3)OCC2=O)cc1
Rattus norvegicus [1]
  inhibition in vivo at 100 mg/kg: 8%
Rattus norvegicus [2]
  inhibition in vivo at 100 mg/kg: 13%
Rattus norvegicus [3]
  inhibition in vivo at 100 mg/kg: 39%
